Experimental data as given in ChEMBL document CHEMBL2074305, “P-glycoprotein induction in rat liver epithelial cells in response to acute 3-methylcholanthrene treatment” (Biochem Pharmacol, 1996).

Experiments:
[1] = biological target: Multidrug resistance protein 1a (Rattus norvegicus) (UniProt Q6PSM0); assay: TP_TRANSPORTER: Northern blot in vitro, nonparenchymal ral liver epithelial cells; type: functional; conditions: Epithelial cell
[2] = biological target: ATP-dependent translocase ABCB1 (Rattus norvegicus, UniProt P43245); assay: TP_TRANSPORTER: RT-PCR in vitro, nonparenchymal rat liver epithelial cells; type: functional, tissue-based; conditions: epithelial cell
[3] = biological target: Multidrug resistance protein 1a (Rattus norvegicus) (UniProt Q6PSM0); assay: TP_TRANSPORTER: Western in vitro, nonparenchymal rat liver epithelial cells; type: functional, tissue-based; conditions: Epithelial cell

Sequence of Multidrug resistance protein 1a (Rattus norvegicus) (Q6PSM0 as listed by the source): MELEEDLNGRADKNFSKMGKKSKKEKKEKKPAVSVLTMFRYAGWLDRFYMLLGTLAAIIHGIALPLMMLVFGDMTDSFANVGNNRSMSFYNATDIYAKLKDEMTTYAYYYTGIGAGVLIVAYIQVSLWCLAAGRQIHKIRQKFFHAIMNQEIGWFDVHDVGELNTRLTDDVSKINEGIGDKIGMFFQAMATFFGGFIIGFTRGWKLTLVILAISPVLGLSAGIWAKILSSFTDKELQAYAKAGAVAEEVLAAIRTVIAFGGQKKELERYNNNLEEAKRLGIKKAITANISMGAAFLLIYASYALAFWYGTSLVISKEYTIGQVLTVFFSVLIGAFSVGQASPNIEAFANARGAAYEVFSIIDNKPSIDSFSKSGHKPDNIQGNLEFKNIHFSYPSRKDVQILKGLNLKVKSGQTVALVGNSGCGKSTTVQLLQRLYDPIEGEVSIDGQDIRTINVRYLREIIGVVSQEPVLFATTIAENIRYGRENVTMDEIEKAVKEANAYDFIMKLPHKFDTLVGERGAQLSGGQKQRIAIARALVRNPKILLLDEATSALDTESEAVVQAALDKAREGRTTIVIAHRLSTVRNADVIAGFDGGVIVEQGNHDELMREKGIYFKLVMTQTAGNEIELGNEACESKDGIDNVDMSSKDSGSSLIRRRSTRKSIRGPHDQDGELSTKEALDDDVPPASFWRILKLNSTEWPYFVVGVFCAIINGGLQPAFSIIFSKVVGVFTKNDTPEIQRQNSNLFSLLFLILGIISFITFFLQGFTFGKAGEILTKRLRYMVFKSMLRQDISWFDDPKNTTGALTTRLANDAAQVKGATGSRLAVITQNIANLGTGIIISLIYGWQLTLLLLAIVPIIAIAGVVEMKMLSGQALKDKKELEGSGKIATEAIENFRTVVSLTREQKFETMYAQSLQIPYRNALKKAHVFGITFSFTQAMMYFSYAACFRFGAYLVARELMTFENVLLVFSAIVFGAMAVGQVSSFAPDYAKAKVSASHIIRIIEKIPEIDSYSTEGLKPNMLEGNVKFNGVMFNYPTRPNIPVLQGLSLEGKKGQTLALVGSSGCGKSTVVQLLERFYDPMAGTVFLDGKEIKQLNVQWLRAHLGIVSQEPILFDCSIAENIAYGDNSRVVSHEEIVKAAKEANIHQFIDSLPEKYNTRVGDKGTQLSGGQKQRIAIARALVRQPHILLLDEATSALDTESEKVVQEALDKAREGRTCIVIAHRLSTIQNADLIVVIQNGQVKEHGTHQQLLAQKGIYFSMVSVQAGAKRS
Sequence of ATP-dependent translocase ABCB1 (P43245 whole entry): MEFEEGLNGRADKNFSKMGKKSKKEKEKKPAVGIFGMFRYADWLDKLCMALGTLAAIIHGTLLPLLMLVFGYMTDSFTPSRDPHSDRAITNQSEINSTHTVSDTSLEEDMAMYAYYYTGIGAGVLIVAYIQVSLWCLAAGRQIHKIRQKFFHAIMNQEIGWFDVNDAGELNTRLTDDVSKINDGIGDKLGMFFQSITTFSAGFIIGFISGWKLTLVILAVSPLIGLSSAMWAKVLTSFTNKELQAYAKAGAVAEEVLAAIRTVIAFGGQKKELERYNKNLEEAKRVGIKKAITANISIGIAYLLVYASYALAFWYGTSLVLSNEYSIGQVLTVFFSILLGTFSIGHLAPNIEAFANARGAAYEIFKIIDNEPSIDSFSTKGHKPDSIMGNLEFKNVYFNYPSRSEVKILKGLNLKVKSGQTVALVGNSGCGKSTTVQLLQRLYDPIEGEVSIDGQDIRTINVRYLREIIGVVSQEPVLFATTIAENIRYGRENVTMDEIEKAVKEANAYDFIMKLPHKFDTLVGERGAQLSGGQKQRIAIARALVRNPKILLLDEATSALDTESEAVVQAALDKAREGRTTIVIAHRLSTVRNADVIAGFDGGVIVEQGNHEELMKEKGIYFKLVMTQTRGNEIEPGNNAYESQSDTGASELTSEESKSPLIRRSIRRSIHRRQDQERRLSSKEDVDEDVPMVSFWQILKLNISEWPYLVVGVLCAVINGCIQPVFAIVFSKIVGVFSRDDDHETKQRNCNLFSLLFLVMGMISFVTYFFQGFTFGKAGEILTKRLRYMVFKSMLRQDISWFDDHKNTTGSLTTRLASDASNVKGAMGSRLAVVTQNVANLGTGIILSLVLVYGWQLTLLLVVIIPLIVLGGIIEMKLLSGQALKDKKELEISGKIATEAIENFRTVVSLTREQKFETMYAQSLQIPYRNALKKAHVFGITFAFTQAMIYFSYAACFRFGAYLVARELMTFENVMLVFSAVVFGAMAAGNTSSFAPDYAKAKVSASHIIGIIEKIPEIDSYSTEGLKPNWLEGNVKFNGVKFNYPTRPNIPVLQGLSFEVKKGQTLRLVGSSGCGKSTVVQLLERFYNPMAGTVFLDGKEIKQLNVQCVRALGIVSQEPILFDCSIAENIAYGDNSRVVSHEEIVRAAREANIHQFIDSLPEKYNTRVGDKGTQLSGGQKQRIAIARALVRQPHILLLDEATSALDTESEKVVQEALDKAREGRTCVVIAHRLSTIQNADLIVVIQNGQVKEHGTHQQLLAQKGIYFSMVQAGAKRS

Compound	Activity [1]	Activity [2]	Activity [3]
C[C@@H]1C[C@@H]([C@H](O)CC2CC(=O)NC(=O)C2)C(=O)[C@@H](C)C1	inducer [+]		
c1ccc2c(c1)cc1ccc3cccc4ccc2c1c34	inducer [+]		
Cc1ccc2cc3c(ccc4ccccc43)c3c2c1CC3 [3-METHYLCHOLANTHRENE]		inducer [+]	inducer [+]
